Series [1] has as its system Drosophila suzukii. Format: in vivo. As to conditions: vial; for Statistical comparison of mortalities in words: second experiment, 7 days, log-rank pairwise comparisons (FIG. 3); for Mortality (%) of flies when fed different sugar formulations: Table 1, first experiment; for Mortality (%) of flies when fed different erythritol and sucralose formulations: Table 2, second experiment. The protocol:
Materials and Methods. Flies and sugars: Drosophila suzukii used in these experiments were from a colony maintained at 22±5° C. under a photoperiod of L:D 16:8 h, and a relative humidity of 60±5% RH at the Horticultural Crops Research Unit, USDA ARS in Corvallis, Oreg. Wildtype flies collected from infested fruits in Corvallis, Oreg. were used to start the colony. Standard rearing methods and diet are described by Woltz, J. M., et al., Journal of Applied Entomology, 139:759-770 (2015). Newly emerged adult males and females were collected daily and maintained in cages with water and diet until they were specific ages for experimentation. Sugars used in this study, meso-erythritol (>99%), sucrose (>99%), and sucralose (>99%), were purchased from Fisher Scientific (Hampton, N.H.).
Different sugar formulations on the fly survivorship: Ten 5-day old flies (5 males and 5 females) were introduced into a plastic vial and given a tube (1.5 ml) containing different water-based solutions. Two combinations of erythritol (Ery) mixed with sucrose (Suc) or sucralose (Sul) were introduced to flies in a plastic vial for 7 days (FIG. 1). For the first experiment various pairs were tested (Table 1): Suc 0.5 M, Ery 0.5 M, Ery 1.5 M+Suc 0.5 M, and Ery 1.5 M+Suc 0.1 M. For the second experiment various pairs were tested (Table 2): Suc 0.5 M, Ery 0.5 M, Sul 0.5 M, Sul 0.1 M, Ery 1.5 M+Sul 0.5 M, Ery 1.5 M+Sul 0.1 M, Ery 2.0 M+Sul 0.1 M, and Ery 2.0 M+Sul 0.01 M. Survivorship of flies was checked daily for 7 days. Each pair per experiment was replicated at least three times.

For series [2], the system named is Drosophila suzukii. Kind of series: Fly mortality in the cage experiment. As to conditions: 7 days (FIG. 7). Format: in vivo. The protocol:
Materials and Methods. Flies and sugars: Drosophila suzukii used in these experiments were from a colony maintained at 22±5° C. under a photoperiod of L:D 16:8 h, and a relative humidity of 60±5% RH at the Horticultural Crops Research Unit, USDA ARS in Corvallis, Oreg. Wildtype flies collected from infested fruits in Corvallis, Oreg. were used to start the colony. Standard rearing methods and diet are described by Woltz, J. M., et al., Journal of Applied Entomology, 139:759-770 (2015). Newly emerged adult males and females were collected daily and maintained in cages with water and diet until they were specific ages for experimentation. […] Effect of erythritol formulations with sucrose or sucralose on fly mortality in the cage experiment: Two combinations of erythritol (Ery) mixed with sucrose (Suc) or sucralose (Sul) were introduced to ten flies in a cage (25 cm wide×25 cm deep×28 cm height) for 7 days (FIG. 6). […] The cage experiment shared similar results with both the vial and cup experiments (FIG. 2, FIG. 5, FIG. 7). In summary, the erythritol/sucralose formulation will not affect human health. The erythritol/sucralose formulation can be directly applied as an insecticide for insects such as Drosophila suzukii. […] The formulations can be used as a phagostimulant with conventional or biological insecticides. […]

Molecules are shown by their SMILES. Where two headings read alike, the source gives them in different places.

With `OC[C@H]1O[C@H](O[C@]2(CCl)O[C@H](CCl)[C@@H](O)[C@@H]2O)[C@H](O)[C@@H](O)[C@H]1Cl` [Sucralose (Sul) 0.5M, sucralose], in the series on Drosophila suzukii [1], the “Statistical comparison of mortalities in words” value is “statistically the same effect”.
As for `OC[C@H]1O[C@@](CO)(O[C@H]2O[C@H](CO)[C@@H](O)[C@H](O)[C@H]2O)[C@@H](O)[C@@H]1O` [Sucrose (Suc) 0.5M, sucrose], the “Mortality (%) of flies when fed different sugar formulations” value turned out to be 1.3% in the series with Drosophila suzukii [1] (Day1); 1.3% in the series on Drosophila suzukii [1] (Day2); 3.8% in the series on Drosophila suzukii [1] (Day3); 5.0% with Drosophila suzukii [1] (Day4); 5.0% with Drosophila suzukii [1] (Day5); 6.3% in the series on Drosophila suzukii [1] (Day6). In the series with Drosophila suzukii [1] (Day7), the “Mortality (%) of flies when fed different sugar formulations” value was 11.3%. Further, the “Mortality (%) of flies when fed different erythritol and sucralose formulations” value in the series with Drosophila suzukii [1] (Day 1) was 0.0%; with Drosophila suzukii [1] (Day 2), 2.5%; with Drosophila suzukii [1] (Day 3) it was 2.5%; in the series with Drosophila suzukii [1] (Day 4), 2.5%; in the series with Drosophila suzukii [1] (Day 5) it was 5.0%; in the series with Drosophila suzukii [1] (Day 6), 5.0%. For the same compound, the “Mortality (%) of flies when fed different erythritol and sucralose formulations” value in the series with Drosophila suzukii [1] (Day 7) came out at 6.3%.
With `OC[C@H]1O[C@H](O[C@]2(CCl)O[C@H](CCl)[C@@H](O)[C@@H]2O)[C@H](O)[C@@H](O)[C@H]1Cl` [Sul 0.1M, sucralose], the “Statistical comparison of mortalities in words” value in the series with Drosophila suzukii [1] is listed as “statistically the same effect”.
With `OC[C@@H](O)[C@@H](O)CO` [Erythritol (Ery) 0.5M, meso-erythritol], the “Statistical comparison of mortalities in words” value in the series with Drosophila suzukii [1] is “statistically the same values”. In the series on Drosophila suzukii [2], the “Statistical comparison of results in words” value was “statistically similar”.

Values taken from patent US11083195B2, “Insecticidal compositions and methods to kill insects” (priority 2019, dated 2021).
